From patent US20230365563A1, “QUINAZOLINE COMPOUND AND APPLICATION THEREOF” (SHANGHAI PHARMACEUTICALS HOLDING CO., LTD., priority 2020, published 2023)
Where a name gives a salt, the structure may show the parent alone.

Legend:
KRAS-G12D and SOS1 = biological target: T1, KRAS-G12D and SOS1 (Homo sapiens, UniProt P01116, G12D); assay: Inhibition of KRAS-G12D/SOS1 binding (Cisbio binding kit, 665/615 ratio), Effect Embodiment A; settings: read-out: GTP-KRAS-G12D:SOS1 IC50
T1 construct: purchased
In short: (§1)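 Test compounds were serially diluted 3-fold from the storage solution over 11 points and dispensed in duplicate wells at 1% final DMSO.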

KRAS_G12D and cRAF = biological target: T2, KRAS_G12D and cRAF (Homo sapiens, UniProt P01116, G12D); assay: Inhibition of KRAS_G12D/cRAF binding (Cisbio binding kit, 665/615 ratio), Effect Embodiment B; settings: read-out: GTP-KRAS-G12D:CRAF IC50
T2 construct: purchased
In short: as §1

KRAS_WT and SOS1 = biological target: T3, KRAS_WT and SOS1 (Homo sapiens, UniProt P01116); assay: Inhibition of KRAS_WT/SOS1 binding (Cisbio binding kit, 665/615 ratio), Effect Embodiment C; settings: read-out: GTP-KRAS-WT:SOS1 IC50
T3 construct: purchased
In short: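 Compounds tested as 3-fold, 11-point dilutions in duplicate at 1% DMSO final against the KRAS_WT/SOS1 binding system. IC50 derived by nonlinear regression fit.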

Row | IC50 (KRAS-G12D and SOS1) [µM] | IC50 (KRAS_G12D and cRAF) [µM] | IC50 (KRAS_WT and SOS1) [µM] | Compound
1 | 0.174 | 0.746 | > 10 | CO[C@@H](COc1nc(N2CC3CCC(C2)N3)c2cc(Cl)c(-c3cc(O)cc4ccccc34)c(F)c2n1)CN1CCCC[C@H]1C (single isomer, unassigned) [Compound 266, (R or S)-4-(4-((1R,5S)-3,8-diazacyclo[3.2.1]octan-3-yl)-6-chloro-8-fluoro-2-((R)-2-methoxy-3-((R)-2-methylpiperidin-1-yl)propoxy)quinazolin-7-yl)naphthalen-2-ol diformate]
2 | 0.0186 | 0.0498 | 0.787 | Oc1cc(-c2c(Cl)cc3c(N4CC5CCC(C4)N5)nc(OC[C@@H]4CCCN4C4CC4)nc3c2F)c2ccccc2c1 (single isomer, unassigned) [Compound 163, 4-((R or S)-4-((1R,5S)-3,8-diazabicyclo[3.2.1]octan-3-yl)-6-chloro-2-((S)-1-cyclopropylpyrrolidin-2-yl)methoxy)-8-fluoroquinazolin-7-yl)naphthalen-2-ol dihydrochloride]
3 | 0.0405 | 0.121 | 1.19 | Oc1cc(-c2c(Cl)cc3c(N4CC5CCC(C4)N5)nc(OCCCN4C5CCCC4COC5)nc3c2F)c2ccccc2c1 (single isomer, unassigned) [Compound 177, (R or S)-4-(2-(3-((1R,5S)-3-oxa-9-azabicyclo[3.3.1]nonan-9-yl)propoxy)-4-((1R,5S)-3,8-diazabicyclo[3.2.1]octan-3-yl)-6-chloro-8-fluoroquinazolin-7-yl)naphthalen-2-ol formate]
4 | 0.00432 | 0.0132 | 0.0756 | C#Cc1c(F)ccc2cc(O)cc(-c3c(Cl)cc4c(N5CC6CCC(C5)N6)nc(OCCCN5C6CCC5COC6)nc4c3F)c12 (single isomer, unassigned) [Compound 255b, (4R or 4S)-4-(2-(3-(3-oxa-8-azabicyclo[3.2.1]octan-8-yl)propoxy)-4-(1R,5S)-3,8-diazabicyclo[3.2.1]octan-3-yl)-6-chloro-8-fluoroquinazolin-7-yl)-5-ethynyl-6-fluoronaphthalen-2-ol diformate]
5 | 0.0132 | 0.00868 | 0.00801 | Oc1cc(-c2c(Cl)cc3c(N4CC5CCC(C4)N5)nc(OC[C@@]45CCCN4C[C@H](F)C5)nc3c2F)c2c(F)c(F)ccc2c1 (single isomer, unassigned) [Compound 214a, 4-((S or R)-4-((1R,5S)-3,8-diazabicyclo[3.2.1]octane-3-yl)-6-chloro-8-fluoro-2-((2R,7aS)-2-fluorotetrahydro-1H-pyrrolidin-7a (5H)-yl)methoxy)quinazolin-7-yl)-5,6-difluoronaphthalen-2-ol diformate]
6 | 0.0356 | 0.133 | 1.02 | Oc1cc(-c2c(Cl)cc3c(N4CC5CCC(C4)N5)nc(OCCCN4CC5CCC(C4)O5)nc3c2F)c2ccccc2c1 (single isomer, unassigned) [Compound 188, 4-((7R or S)-2-(3-(8-oxa-3-azabicyclo[3.2.1]octan-3-yl)propoxy)-4-((1R,5S)-3,8-diazabicyclo[3.2.1]octan-3-yl)-6-chloro-8-fluoroquinazolin-7-yl)naphthalen-2-ol formate]
7 | 0.0593 | 0.134 | 2.13 | Oc1cc(-c2c(Cl)cc3c(N4CC5CCC(C4)N5)nc(OCCC4(N5CCCC5)CC4)nc3c2F)c2ccccc2c1 (single isomer, unassigned) [Compound 117, 4-((S or R)-4-((1R,5S)-3,8-diazabicyclo[3.2.1]octan-3-yl)-6-chloro-8-fluoro-2-(2-(1-(pyrrolidin-1-yl)cyclopropyl)ethoxy)quinazolin-7-yl)naphthalen-2-ol dihydrochloride]
8 | 0.0636 | 0.175 | 5.03 | CC[C@@H]1CN(CCCOc2nc(N3CC4CCC(C3)N4)c3cc(Cl)c(-c4cc(O)cc5ccccc45)c(F)c3n2)C[C@H](CC)O1 (single isomer, unassigned) [Compound 221, 4-((S or R)-4-((1R,5S)-3,8-diazabicyclo[3.2.1]octan-3-yl)-6-chloro-2-(3-((2S,6R)-2,6-diethylmorpholinyl)propoxy)-8-fluoroquinazolin-7-yl)naphthalen-2-ol formate]
9 | 0.05 | 0.184 | 4.9 | CC1OCCN(CCCOc2nc(N3CC4CCC(C3)N4)c3cc(Cl)c(-c4cc(O)cc5ccccc45)c(F)c3n2)C1C (single isomer, unassigned) [Compound 265d, 4-((R or S)-4-((1R,5S)-3,8-diazabicyclo[3.2.1]octan-3-yl)-6-chloro-2-(3-(2R or 2S, 3R or 3S)-2,3-dimethylmorpholinyl)propoxy)-8-fluoroquinazolin-7-yl)naphthalen-2-ol diformate]
10 | 0.0209 | 0.037 | 0.222 | CN1C[C@H](F)C[C@H]1COc1nc(N2CC3CCC(C2)N3)c2cnc(-c3cc(O)cc4ccccc34)c(F)c2n1 [Compound 131]
11 | 0.0179 | 0.0195 | 0.248 | CN1CC2(CC2)C[C@H]1COc1nc(N2C[C@H]3CC[C@@H](C2)N3)c2cc(Cl)c(-c3cc(O)cc4ccccc34)c(F)c2n1 (single isomer, unassigned) [Compound 167, (R or S)-4-(4-((1R,5S)-3,8-diazabicyclo[3.2.1]octan-3-yl)-6-chloro-8-fluoro-2-(((S)-5-methyl-5-azaspiro[2.4]heptan-6-yl)methoxy)quinazolin-7-yl)naphthalen-2-ol dihydrochloride]
12 | 0.0166 | 0.00912 | 0.0184 | CCc1cccc2cc(O)cc(-c3c(F)cc4c(N5CC6CCC(C5)N6)nc(OC[C@@]56CCCN5C[C@H](F)C6)nc4c3F)c12 (single isomer, unassigned) [Compound 285a, (S or R)-4-(4-((1R,5S)-3,8-diazacyclo[3.2.1]octan-3-yl)-6,8-difluoro-2-((2R,7aS)-2-fluorotetrahydro-1H-pyrrolidin-7a(5H-yl)methoxy)quinazolin-7-yl)-5-ethylnaphthalen-2-ol dihydrochloride]
13 | 0.0142 | 0.0183 | 0.0923 | C[C@@H](COc1nc(N2CC3CCC(C2)N3)c2cc(Cl)c(-c3cc(O)cc4ccc(F)c(F)c34)c(F)c2n1)CN1C2CCC1COC2 (single isomer, unassigned) [Compound 228, ((4S or 4R) 4-(2-((2R)-3-(3-oxa-8-azabicyclo[3.2.1]octan-8-yl)-2-methylpropoxy)-4-((1R,5S)-3,8-diazabicyclo[3.2.1]octan-3-yl)-6-chloro-8-fluoroquinazolin-7-yl)-5,6-difluoronaphthalen-2-ol formate]
14 | 0.0192 | 0.0375 | 1.25 | C[C@@H](COc1nc(N2CC3CCC(C2)N3)c2cc(Cl)c(-c3cc(O)cc4ccccc34)c(F)c2n1)CN1CCOC2(CC2)C1 (single isomer, unassigned) [Compound 243, 4-((S or R)-4-((1R,5S)-3,8-diazabicyclo[3.2.1]octan-3-yl)-6-chloro-8-fluoro-2-((R)-2-methyl-3-(4-oxa-7-azaspiro[2.5]octan-7-yl)propoxy)quinazolin-7-yl)naphthalen-2-ol formate]
15 | 0.0392 | 0.114 | 2.04 | N=C(N)NCCCOc1nc(N2CC3CCC(C2)N3)c2cc(Cl)c(-c3cc(O)cc4ccccc34)c(F)c2n1 (single isomer, unassigned) [Compound 150, 1-(3-((4-((1R,5S)-3,8-diazabicyclo[3.2.1]octan-3-yl)-6-chloro-8-fluoro-7-((S or R)-3-hydroxynaphthalen-1-yl)quinazolin-2-yl)oxy)propyl)guanidine diformate]
16 | 0.0116 | 0.00723 | 0.196 | C[C@@H]1CN(CC2(COc3nc(N4CC5CCC(C4)N5)c4cc(Cl)c(-c5cc(O)cc6ccccc56)c(F)c4n3)CC2)C[C@H](C)O1 (single isomer, unassigned) [Compound 207, 4-((S or R)-4-((1R,5S)-3,8-diazabicyclo[3.2.1]octan-3-yl)-6-chloro-2-((2S,6R)-2,6-dimethylmorpholinyl)methyl)cyclopropyl)methoxy)-8-fluoroquinazolin-7-yl)naphthalenol formate]
17 | 0.062 | 0.0737 | 2.49 | Oc1cc(-c2c(Cl)cc3c(N4CC5CCC(C4)N5)nc(OCCCN4C5COCC4C5)nc3c2F)c2ccccc2c1 (single isomer, unassigned) [Compound 200, 4-((7S or 7R)-2-(3-(3-oxa-6-azabicyclo[3.1.1]heptan-6-yl)propoxy)-4-((1R,5S)-3,8-diazabicyclo[3.2.1]octan-3-yl)-6-chloro-8-fluoroquinazolin-7-yl)naphthalen-2-ol diformate]

Row | Compound | IC50 (KRAS-G12D and SOS1) [µM] | IC50 (KRAS_G12D and cRAF) [µM] | IC50 (KRAS_WT and SOS1) [µM]
18 | ((3R or 3S, 7aR or 7aS)-7a-((4-((1R,5S)-3,8-diazabicyclo[3.2.1]octan-3-yl)-6-chloro-8-fluoro-7-(3-hydroxynaphthalen-1-yl)quinazolin-2-yl)oxy)methyl)hexahydro-1H-pyrrolidin-3-yl)dimethylcarbamate tristrifluoroacetate [Compound 232b] | 0.0135 | 0.0148 | 0.0662
19 | CN1CCC[C@H]1COc1nc(N2CC3CCC(C2)N3)c2cc(Cl)c(-c3cc(O)cc4ccccc34)c(F)c2n1 (single isomer, unassigned) [Compound 39a, (S or R)-4-(4-((1R,5S)-3,8-diazabicyclo[3.2.1]octan-3-yl)-6-chloro-8-fluoro-2-((S)-1-methylpyrrolidin-2-yl)methoxy)quinazolin-7-yl)naphthalen-2-ol] | 0.0277 | 0.0262 | 0.342
